Laboratory results: patent US11312712B2, “Azabenzimidazoles and their use as AMPA receptor modulators” (Janssen Pharmaceutica NV, priority 2015, dated 2022)

target: GluA1o-γ8 (GRIA1o-CACNG8 fusion construct) (Homo sapiens (Human), UniProt P42261+Q8WXS5); assay: Calcium flux assay (FLIPR), inhibition of TARP γ8 dependent AMPA receptor activity; format: cell-based; conditions: GluA1o-γ8 (GRIA1o-CACNG8 fusion) in HEK293 cells, calcium flux after 15 μM glutamate
How it was run: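 HEK293 cells stably expressing a 1:1 GRIA1o–CACNG8 fusion were loaded with Calcium-5/6 dye plus compound in pH 7.4 HEPES-buffered saline. FLIPR calcium flux after 15 μM glutamate was normalized to untreated and 10 μM CP465022 controls, and a four-parameter logistic fit gave pIC50.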

Chain of GluA1o-γ8 (GRIA1o-CACNG8 fusion construct) (P42261 other isoform, or with tags, fused parts or gaps): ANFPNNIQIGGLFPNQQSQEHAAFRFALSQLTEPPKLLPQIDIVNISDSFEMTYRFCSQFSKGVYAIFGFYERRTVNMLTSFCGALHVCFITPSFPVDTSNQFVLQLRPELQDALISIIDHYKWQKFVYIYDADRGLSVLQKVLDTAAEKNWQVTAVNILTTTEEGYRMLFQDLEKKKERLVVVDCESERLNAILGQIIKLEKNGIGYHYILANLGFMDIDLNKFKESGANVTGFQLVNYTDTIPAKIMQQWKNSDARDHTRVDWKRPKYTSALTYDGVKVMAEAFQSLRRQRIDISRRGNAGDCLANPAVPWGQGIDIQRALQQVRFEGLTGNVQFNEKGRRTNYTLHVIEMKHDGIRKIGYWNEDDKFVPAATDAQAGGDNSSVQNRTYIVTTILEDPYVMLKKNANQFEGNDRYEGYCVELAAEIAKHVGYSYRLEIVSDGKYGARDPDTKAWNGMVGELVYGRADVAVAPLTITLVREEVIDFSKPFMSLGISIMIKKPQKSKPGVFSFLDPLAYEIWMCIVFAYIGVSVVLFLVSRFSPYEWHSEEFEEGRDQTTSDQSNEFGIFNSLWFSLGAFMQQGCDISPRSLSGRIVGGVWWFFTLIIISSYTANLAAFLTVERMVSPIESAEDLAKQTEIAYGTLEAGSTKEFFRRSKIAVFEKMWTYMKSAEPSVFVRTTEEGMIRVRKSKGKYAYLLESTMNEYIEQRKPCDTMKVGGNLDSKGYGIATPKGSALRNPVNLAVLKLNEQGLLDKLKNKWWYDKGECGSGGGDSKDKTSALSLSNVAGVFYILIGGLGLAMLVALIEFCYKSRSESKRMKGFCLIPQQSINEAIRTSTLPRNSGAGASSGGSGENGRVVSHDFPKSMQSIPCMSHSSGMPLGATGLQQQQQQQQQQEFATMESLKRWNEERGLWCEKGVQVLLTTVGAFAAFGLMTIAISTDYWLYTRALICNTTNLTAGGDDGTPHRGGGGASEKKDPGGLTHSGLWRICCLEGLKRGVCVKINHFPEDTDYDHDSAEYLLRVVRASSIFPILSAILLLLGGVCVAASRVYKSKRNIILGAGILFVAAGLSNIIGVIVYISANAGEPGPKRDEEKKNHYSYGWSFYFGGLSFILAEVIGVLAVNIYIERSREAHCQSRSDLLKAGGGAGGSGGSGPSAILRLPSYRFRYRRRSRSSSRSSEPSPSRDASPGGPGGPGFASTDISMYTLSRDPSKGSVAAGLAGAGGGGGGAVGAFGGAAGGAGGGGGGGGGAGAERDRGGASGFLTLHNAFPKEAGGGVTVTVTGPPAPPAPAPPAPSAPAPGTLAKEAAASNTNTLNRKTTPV

Row | IC50 | SMILES
1 | 0.501 nM | Cc1ccc2nc([C@H]3C[C@H](F)C3)n(-c3cc(Cl)c4[nH]ncc4c3)c2n1 [Example 249, 3-(7-Chloro-1H-indazol-5-yl)-2-(3-fluorocyclobutyl)-5-methyl-imidazo[4,5-b]pyridine]
2 | 0.1 nM | CCc1nc2ccc(C(F)(F)F)nc2n1-c1cc(C)c2[nH]ncc2c1 [Example 315, 2-Ethyl-3-(7-methyl-1H-indazol-5-yl)-5-(trifluoromethyl)imidazo[4,5-b]pyridine]
3 | 12.6 nM | CC(C)(C)c1nc2ccc(C(F)(F)F)nc2n1-c1ccc2c(c1)CC(=O)N2 [Example 61, 5-[2-tert-Butyl-5-(trifluoromethyl)imidazo[4,5-b]pyridin-3-yl]indolin-2-one]
4 | 251 nM | FC(F)(F)Cc1nc2ccc(C(F)(F)F)nc2n1-c1ccc2[nH]ncc2c1 [Example 113, 3-(1H-Indazol-5-yl)-2-(2,2,2-trifluoroethyl)-5-(trifluoromethyl)imidazo[4,5-b]pyridine]
5 | 79.4 nM | Cc1ccc2nc(C3CC3)n(-c3ccc4c(c3)CC(=O)N4)c2n1 [Example 87, 5-(2-Cyclopropyl-5-methyl-imidazo[4,5-b]pyridin-3-yl)indolin-2-one]
6 | 0.0631 nM | O=C1Cc2cc(-n3c(C4CC4)c(Br)c4ccc(C(F)(F)F)nc43)ccc2N1 [Example 389, 5-[3-Bromo-2-cyclopropyl-6-(trifluoromethyl)pyrrolo[2,3-b]pyridin-1-yl]indolin-2-one]
7 | 39.8 nM | COc1nc2ccc(C(F)(F)F)nc2n1-c1ccc2c(c1)CC(=O)N2 [Example 244, 5-[2-Methoxy-5-(trifluoromethyl)imidazo[4,5-b]pyridin-3-yl]indolin-2-one]
8 | 12.6 nM | FC(F)(F)c1ccc2nc(-c3ccncc3)n(-c3ccc4[nH]ncc4c3)c2n1 [Example 124, 3-(1H-Indazol-5-yl)-2-(4-pyridyl)-5-(trifluoromethyl)imidazo[4,5-b]pyridine]
9 | 1 nM | Cc1ccc2nc(-c3ccc(F)cc3)n(-c3ccc4[nH]ncc4c3)c2n1 [Example 4, 2-(4-Fluorophenyl)-3-(1H-indazol-5-yl)-5-methyl-imidazo[4,5-b]pyridine]
10 | 1.58 nM | Cc1ccc2nc(C(C)(F)F)n(-c3ccc4[nH]c(=O)sc4c3)c2n1 [Example 150, 6-[2-(1,1-Difluoroethyl)-5-methyl-imidazo[4,5-b]pyridin-3-yl]-3H-1,3-benzothiazol-2-one]
11 | 0.0794 nM | Cc1cc(-n2c([C@@H](C)F)nc3ccc(C(F)(F)F)nc32)cc2cn[nH]c12 (single isomer, unassigned) [Example 256, (*R)-2-(1-Fluoroethyl)-3-(7-methyl-1H-indazol-5-yl)-5-(trifluoromethyl)imidazo[4,5-b]pyridine]
12 | 0.2 nM | O=c1[nH]c2ccc(-n3c(-c4ccc(F)cc4)nc4ccc(Cl)nc43)cc2s1 [Example 30, 6-[5-Chloro-2-(4-fluorophenyl)imidazo[4,5-b]pyridin-3-yl]-3H-1,3-benzothiazol-2-one]
13 | 0.631 nM | O=C1Cc2cc(-n3c(-c4ccc(F)cc4)nc4ccc(C(F)(F)F)nc43)ccc2N1 [Example 33, 5-[2-(4-Fluorophenyl)-5-(trifluoromethyl)imidazo[4,5-b]pyridin-3-yl]indolin-2-one]
14 | 0.158 nM | O=c1[nH]c2ccc(-n3c(C4CCCCC4)nc4ccc(C(F)(F)F)nc43)cc2s1 [Example 40, 6-[2-Cyclohexyl-5-(trifluoromethyl)imidazo[4,5-b]pyridin-3-yl]-3H-1,3-benzothiazol-2-one]
15 | 158 nM | Oc1n[nH]c2ccc(-n3c(C(F)F)nc4ccc(C(F)(F)F)nc43)cc12 [Example 296, 5-[2-(Difluoromethyl)-5-(trifluoromethyl)imidazo[4,5-b]pyridin-3-yl]-1H-indazol-3-ol]
16 | 316 nM | O=c1[nH]c2ccc(-n3c(C4CCOC4)nc4ccc(C(F)(F)F)nc43)cc2o1 (racemic) [Example 161, (R/S)-6-[2-Tetrahydrofuran-3-yl-5-(trifluoromethyl)imidazo[4,5-b]pyridin-3-yl]-3H-1,3-benzoxazol-2-one]
17 | 501 nM | O=C(NC1CC1)c1nc2ccc(C(F)(F)F)nc2n1-c1ccc2[nH]ncc2c1 [Example 128, N-Cyclopropyl-3-(1H-indazol-5-yl)-5-(trifluoromethyl)imidazo[4,5-b]pyridine-2-carboxamide]
18 | 251 nM | CC(C)(C)Cc1nc2ccc(C(F)(F)F)nc2n1-c1ccc2c(c1)CC(=O)N2 [Example 97, 5-[2-(2,2-Dimethylpropyl)-5-(trifluoromethyl)imidazo[4,5-b]pyridin-3-yl]indolin-2-one]

Further lines, the compound ahead of its results:

Row | SMILES | IC50
19 | Cc1ccc2ccn(-c3cc(C)c4[nH]ncc4c3)c2n1 [Example 341, 6-Methyl-1-(7-methyl-1H-indazol-5-yl)pyrrolo[2,3-b]pyridine] | 15.8 nM
20 | CCCc1cc(-n2c(C(F)(F)F)nc3ccc(C(F)(F)F)nc32)cc2cn[nH]c12 [Example 221, 3-(7-Propyl-1H-indazol-5-yl)-2,5-bis(trifluoromethyl)-3H-imidazo[4,5-b]pyridine] | 0.126 nM
21 | Cc1cc(-n2c(C(C)C)cc3cccnc32)cc2c1NC(=O)C2 [Example 358, 5-(2-Isopropylpyrrolo[2,3-b]pyridin-1-yl)-7-methyl-indolin-2-one] | 0.2 nM
22 | O=C1Cc2cc(-n3c(C(F)(F)F)nc4ccc(C(F)(F)F)nc43)cnc2N1 [Example 292, 5-[2,5-Bis(trifluoromethyl)imidazo[4,5-b]pyridin-3-yl]-1,3-dihydropyrrolo[2,3-b]pyridin-2-one] | 7.94 nM
23 | Fc1ccc(-c2nc3ccc(C(F)(F)F)nc3n2-c2ccc3[nH]ncc3c2)cc1 [Example 110, 2-(4-Fluorophenyl)-3-(1H-indazol-5-yl)-5-(trifluoromethyl)imidazo[4,5-b]pyridine] | 0.316 nM
24 | Cn1c(=O)sc2cc(-n3c(C4CCC4)nc4ccc(C(F)(F)F)nc43)ccc21 [Example 185, 6-(2-Cyclobutyl-5-(trifluoromethyl)-3H-imidazo[4,5-b]pyridin-3-yl)-3-methylbenzo[d]thiazol-2(3H)-one] | 100 nM
25 | O=C1Cc2cc(-n3c(C4CCCC4)nc4ccc(C(F)(F)F)nc43)ccc2N1 [Example 60, 5-[2-Cyclopentyl-5-(trifluoromethyl)imidazo[4,5-b]pyridin-3-yl]indolin-2-one] | 2 nM
26 | OCCCc1cc(-n2c(C(F)(F)F)nc3ccc(C(F)(F)F)nc32)cc2cn[nH]c12 [Example 220, 3-(5-(2,5-Bis(trifluoromethyl)-3H-imidazo[4,5-b]pyridin-3-yl)-1H-indazol-7-yl)propan-1-ol] | 158 nM
27 | O=c1[nH]c2ccc(-n3c(-c4ccccc4)nc4ccc(C(F)F)nc43)cc2s1 [Example 67, 6-(5-(Difluoromethyl)-2-phenyl-3H-imidazo[4,5-b]pyridin-3-yl)benzo[d]thiazol-2(3H)-one] | 0.1 nM
28 | CC(C)c1nc2ccc(C(F)(F)F)nc2n1-c1cnc2[nH]ncc2c1 [Example 302, 2-Isopropyl-3-(1H-pyrazolo[3,4-b]pyridin-5-yl)-5-(trifluoromethyl)imidazo[4,5-b]pyridine] | 39.8 nM
29 | O=c1[nH]c2ccc(-n3c(-c4ccccc4)nc4ccc(Br)nc43)cc2s1 [Example 32, 6-(5-Bromo-2-phenyl-imidazo[4,5-b]pyridin-3-yl)-3H-1,3-benzothiazol-2-one] | 0.501 nM
30 | Cc1cc(-n2c(C(C)(F)F)nc3ccc(C(F)(F)F)nc32)cc2c1NC(=O)C2 [Example 276, 5-[2-(1,1-Difluoroethyl)-5-(trifluoromethyl)imidazo[4,5-b]pyridin-3-yl]-7-methyl-indolin-2-one] | 0.2 nM
31 | O=C1Cc2cc(-n3c(C4CNC4)nc4ccc(C(F)(F)F)nc43)ccc2N1 [Example 180, 5-[2-(Azetidin-3-yl)-5-(trifluoromethyl)imidazo[4,5-b]pyridin-3-yl]indolin-2-one] | 2000 nM
32 | CC(C)c1nc2ccc(C(F)(F)F)nc2n1-c1cnc2c(c1)CC(=O)N2 [Example 301, 5-[2-Isopropyl-5-(trifluoromethyl)imidazo[4,5-b]pyridin-3-yl]-1,3-dihydropyrrolo[2,3-b]pyridin-2-one] | 31.6 nM
33 | Cc1nc2ccc(C(F)F)nc2n1-c1cc(Cl)c2[nH]ncc2c1 [Example 274, 3-(7-Chloro-1H-indazol-5-yl)-5-(difluoromethyl)-2-methyl-imidazo[4,5-b]pyridine] | 0.316 nM
34 | Cc1cc2ccc(C(F)(F)F)nc2n1-c1ccc2[nH]c(=O)sc2c1 [Example 355, 6-(2-Methyl-6-(trifluoromethyl)-1H-pyrrolo[2,3-b]pyridin-1-yl)benzo[d]thiazol-2(3H)-one] | 0.02 nM
35 | CC(C)(C)Oc1ccc2cc(-c3ccc(F)cc3)n(-c3ccc4[nH]ccc4c3)c2n1 [Example 386, 6-tert-Butoxy-2-(4-fluorophenyl)-1-(1H-indol-5-yl)pyrrolo[2,3-b]pyridine] | 1580 nM
36 | Cc1cc(-n2c(C(F)F)nc3ccc(C(F)F)nc32)cc2cn[nH]c12 [Example 212, 2,5-Bis(difluoromethyl)-3-(7-methyl-1H-indazol-5-yl)imidazo[4,5-b]pyridine] | 0.0794 nM
37 | COC(=O)c1cc(-n2c(C(F)F)nc3ccc(C(F)(F)F)nc32)cc2cn[nH]c12 [Example 285, Methyl 5-[2-(difluoromethyl)-5-(trifluoromethyl)imidazo[4,5-b]pyridin-3-yl]-1H-indazole-7-carboxylate] | 251 nM
38 | Cc1cc2ccc(C(F)(F)F)nc2n1-c1cc(Cl)c2[nH]ncc2c1 [Example 374, 1-(7-Chloro-1H-indazol-5-yl)-2-methyl-6-(trifluoromethyl)pyrrolo[2,3-b]pyridine] | 0.0126 nM
39 | COc1ccc2nc(-c3ccc(F)cc3)n(-c3ccc4[nH]ccc4c3)c2n1 [Example 5, 2-(4-Fluorophenyl)-3-(1H-indol-5-yl)-5-methoxy-imidazo[4,5-b]pyridine] | 39.8 nM
40 | O=c1[nH]c2ccc(-n3c(C(F)(F)F)nc4ccc(C(F)(F)F)nc43)cc2s1 [Example 134, 6-[2,5-Bis(trifluoromethyl)imidazo[4,5-b]pyridin-3-yl]-3H-1,3-benzothiazol-2-one] | 0.0794 nM
